# According to EP0465716A1, “Optically active thiazetoquino-line-3-carboxylic acid compound, method for preparation thereof, and a pharmaceutical composition comprising the same” (priority 1990, dated 1992):
# Key:
# [1] = tested on: Pseudomonas aeruginosa IFO 3445; test: MIC, twofold agar dilution method (standard laboratory strain); assay type: cell-based; conditions: IFO3445; Pseudomonas aeruginosa IFO 3445, Gram -; 10^6 cfu/ml; 18 hrs at 37 °C
# Protocol: (§1) Overnight cultures in Mueller-Hinton broth were suspended by buffered saline gelatin. One loopful of the bacterial suspension (10⁶ or 10⁸ colony-forming units/ml) was incubated onto the plates containing test compounds. The plates were incubated for 18 hrs at 37 °C. The MIC was defined by the lowest concentration of the drug that inhibited visible growth of bacteria.
# [2] = tested on: Staphylococuss aureus FDA 209PJC-1; test: as above; assay type: cell-based; conditions: Staphylococuss aureus FDA 209PJC-1, Gram +; 10^6 cfu/ml; 18 hrs at 37 °C
# Protocol: as §1
# Enterobacter cloacae 963 = test: as above; assay type: cell-based; conditions: Enterobacter cloacae 963, Gram -; 10^6 cfu/ml; 18 hrs at 37 °C
# Protocol: as §1
# [3] = tested on: Escherichia coli NIHJ JC-2; test: as above; assay type: cell-based; conditions: NIHJJC2; Escherichia coli NIHJ JC-2, Gram -; 10^6 cfu/ml; 18 hrs at 37 °C
# Protocol: as §1
# [4] = tested on: Serratia marcescens IAM 1184; test: as above; assay type: cell-based; conditions: IAM1184; Serratia marcescens IAM 1184, Gram -; 10^6 cfu/ml; 18 hrs at 37 °C
# Protocol: as §1
# [5] = tested on: Acinetobacter calcoaceticus HNR 916; test: MIC, twofold agar dilution method (clinically isolated strain); assay type: cell-based; conditions: HNR916; Acinetobacter calcoaceticus HNR 916, Gram -; 10^6 cfu/ml; 18 hrs at 37 °C
# Protocol: as §1
# [6] = tested on: Enterobacter cloacae HNR 1946; test: as above; assay type: cell-based; conditions: HNR1946; Enterobacter cloacae HNR 1946, Gram -; 10^6 cfu/ml; 18 hrs at 37 °C
# Protocol: as §1
# [7] = tested on: Pseudomonas aeruginosa HNR 1472; test: as above; assay type: cell-based; conditions: HNR1472; Pseudomonas aeruginosa HNR 1472, Gram -; 10^6 cfu/ml; 18 hrs at 37 °C
# Protocol: as §1
# [8] = tested on: Serratia marcescens HNR 1544; test: as above; assay type: cell-based; conditions: HNR1544; Serratia marcescens HNR 1544, Gram -; 10^6 cfu/ml; 18 hrs at 37 °C
# Protocol: as §1
# [9] = tested on: Staphylococcuss aureus HPC 527; test: as above; assay type: cell-based; conditions: Staphylococcuss aureus HPC 527, Gram +; 10^6 cfu/ml; 18 hrs at 37 °C
# Protocol: as §1
# [10] = tested on: Enterococcus faecalis HPC 975; test: as above; assay type: cell-based; conditions: HPC975; Enterococcus faecalis HPC 975, Gram +; 10^6 cfu/ml; 18 hrs at 37 °C
# Protocol: as §1
# [11] = tested on: Klebsiella pneumoniae HNR 828; test: as above; assay type: cell-based; conditions: HNR828; Klebsiella pneumoniae HNR 828, Gram -; 10^6 cfu/ml; 18 hrs at 37 °C
# Protocol: as §1
# [12] = tested on: Pseudomonas aeruginosa HNR 1537; test: as above; assay type: cell-based; conditions: HNR1537; Pseudomonas aeruginosa HNR 1537, Gram -; 10^6 cfu/ml; 18 hrs at 37 °C
# Protocol: as §1
# [13] = tested on: Serratia marcescens HNR 1792; test: as above; assay type: cell-based; conditions: HNR1792; Serratia marcescens HNR 1792, Gram -; 10^6 cfu/ml; 18 hrs at 37 °C
# Protocol: as §1
# [14] = tested on: Staphylococcuss aureus HPC 292; test: as above; assay type: cell-based; conditions: Staphylococcuss aureus HPC 292, Gram +; 10^6 cfu/ml; 18 hrs at 37 °C
# Protocol: as §1
# [15] = tested on: Enterococcus faecalis HPC 984; test: as above; assay type: cell-based; conditions: HPC984; Enterococcus faecalis HPC 984, Gram +; 10^6 cfu/ml; 18 hrs at 37 °C
# Protocol: as §1
# [16] = tested on: Enterobacter cloacae HNR 1941; test: as above; assay type: cell-based; conditions: HNR1941; Enterobacter cloacae HNR 1941, Gram -; 10^6 cfu/ml; 18 hrs at 37 °C
# Protocol: as §1
# [17] = tested on: Klebsiella pneumoniae HNR 858; test: as above; assay type: cell-based; conditions: HNR858; Klebsiella pneumoniae HNR 858, Gram -; 10^6 cfu/ml; 18 hrs at 37 °C
# Protocol: as §1
# [18] = tested on: Acinetobacter calcoaceticus HNR 939; test: as above; assay type: cell-based; conditions: HNR939; Acinetobacter calcoaceticus HNR 939, Gram -; 10^6 cfu/ml; 18 hrs at 37 °C
# Protocol: as §1
# [19] = tested on: Staphylococcuss aureus HPC 308; test: as above; assay type: cell-based; conditions: Staphylococcuss aureus HPC 308, Gram +; 10^6 cfu/ml; 18 hrs at 37 °C
# Protocol: as §1
# [20] = tested on: Enterobacter cloacae HNR 1939; test: as above; assay type: cell-based; conditions: HNR1939; Enterobacter cloacae HNR 1939, Gram -; 10^6 cfu/ml; 18 hrs at 37 °C
# Protocol: as §1
# [21] = tested on: Serratia marcescens HNR 1767; test: as above; assay type: cell-based; conditions: HNR1767; Serratia marcescens HNR 1767, Gram -; 10^6 cfu/ml; 18 hrs at 37 °C
# Protocol: as §1
# [22] = tested on: Enterococcus faecalis HPC 948; test: as above; assay type: cell-based; conditions: HPC948; Enterococcus faecalis HPC 948, Gram +; 10^6 cfu/ml; 18 hrs at 37 °C
# Protocol: as §1
# [23] = tested on: Klebsiella pneumoniae HNR 869; test: as above; assay type: cell-based; conditions: HNR869; Klebsiella pneumoniae HNR 869, Gram -; 10^6 cfu/ml; 18 hrs at 37 °C
# Protocol: as §1
# [24] = tested on: Acinetobacter calcoaceticus HNR 904; test: as above; assay type: cell-based; conditions: HNR904; Acinetobacter calcoaceticus HNR 904, Gram -; 10^6 cfu/ml; 18 hrs at 37 °C
# Protocol: as §1
# [25] = tested on: Pseudomonas aeruginosa HNR 1489; test: as above; assay type: cell-based; conditions: HNR1489; Pseudomonas aeruginosa HNR 1489, Gram -; 10^6 cfu/ml; 18 hrs at 37 °C
# Protocol: as §1
# [26] = tested on: Klebsiella pneumoniae PCI-602; test: MIC, twofold agar dilution method (standard laboratory strain); assay type: cell-based; conditions: PCI602; Klebsiella pneumoniae PCI-602, Gram -; 10^6 cfu/ml; 18 hrs at 37 °C; read-out: MIC
# Protocol: as §1, with “Minimum inhibitory concentrations (MIC) of test compounds were determined by the twofold agar dilution method (Chemotherapy, 29(1), 76(1981)). Overnight” for “Overnight”
# Male mice of ddY strain = test: Convulsion inducing activity in combination with fenbufen; conditions: 100 mg/kg (i.p.), thirty minutes after fenbufen 100 mg/kg orally
# Protocol: Male mice of ddY strain, 5 weeks old, were used. Fenbufen suspended in 0.5 % carboxymethylcellulose was administered orally at a dose of 100 mg/kg. After thirty minutes, test compounds suspended in 0.5 % carboxymethylcellulose were injected intraperitoneally (i.p.) at a dose of 100 mg/kg or 300 mg/kg.
MIC [1] [µg/mL],MIC [2] [µg/mL],MIC (Enterobacter cloacae 963) [µg/mL],MIC [3] [µg/mL],MIC [4] [µg/mL],MIC [5] [µg/mL],MIC [6] [µg/mL],MIC [7] [µg/mL],MIC [8] [µg/mL],MIC [9] [µg/mL],MIC [10] [µg/mL],MIC [11] [µg/mL],MIC [12] [µg/mL],MIC [13] [µg/mL],MIC [14] [µg/mL],MIC [15] [µg/mL],MIC [16] [µg/mL],MIC [17] [µg/mL],MIC [18] [µg/mL],MIC [19] [µg/mL],Structure (SMILES),also measured
0.2,0.1,0.1,0.1,0.2,0.39,1.56,> 100,0.1,0.2,> 100,50,> 100,> 100,> 100,0.78,> 100,0.78,> 100,100,"NC1CCN(c2c(F)cc3c(=O)c(C(=O)O)c4n(c3c2F)CS4)C1 (stereo not shown) [Ref. Drug E, 7-(3-amino-1-pyrrolidinyl)-6,8-difluoro-4-oxo-1H,4H-[1,3]thiazeto[3,2-a]quinoline-3-carboxylic acid]",MIC [20]: 0.78 µg/mL; MIC [21]: > 100 µg/mL; MIC [22]: 50 µg/mL; MIC [23]: 50 µg/mL; MIC [24]: > 100 µg/mL; MIC [25]: 0.39 µg/mL; MIC [26]: 0.05 µg/mL
0.1,0.025,0.05,0.025,0.05,0.1,0.2,3.13,0.05,0.05,1.56,1.56,6.25,1.56,1.56,0.1,1.56,0.2,0.78,0.78,"CC1Sc2c(C(=O)O)c(=O)c3cc(F)c(N4CC[C@@H](N)C4)c(Cl)c3n21 (single isomer, unassigned) [Example 17]",MIC [20]: 0.1 µg/mL; MIC [21]: 6.25 µg/mL; MIC [22]: 0.39 µg/mL; MIC [23]: 0.78 µg/mL; MIC [24]: 12.5 µg/mL; MIC [25]: 0.2 µg/mL; MIC [26]: 0.025 µg/mL

Structure (SMILES),MIC [1] [µg/mL],MIC [2] [µg/mL],MIC (Enterobacter cloacae 963) [µg/mL],MIC [3] [µg/mL],MIC [4] [µg/mL],MIC [5] [µg/mL],MIC [6] [µg/mL],MIC [7] [µg/mL],MIC [8] [µg/mL],MIC [9] [µg/mL],MIC [10] [µg/mL],MIC [11] [µg/mL],MIC [12] [µg/mL],MIC [13] [µg/mL],MIC [14] [µg/mL],MIC [15] [µg/mL],MIC [16] [µg/mL],MIC [17] [µg/mL],MIC [18] [µg/mL],MIC [19] [µg/mL],also measured
"CC1Sc2c(C(=O)O)c(=O)c3cc(F)c(N4CCNCC4)c(F)c3n21 (stereo not shown) [Ref. Drug C, 6,8-difluoro-1-methyl-4-oxo-7-(1-piperazinyl)-1H,4H-[1,3]thiazeto[3,2-a]quinoline-3-carboxylic acid]",0.2,0.1,0.05,0.05,0.1,0.2,0.39,6.25,0.1,0.2,50,3.13,12.5,3.13,25,0.39,6.25,0.39,3.13,6.25,MIC [20]: 0.39 µg/mL; MIC [21]: 12.5 µg/mL; MIC [22]: 3.13 µg/mL; MIC [23]: 0.78 µg/mL; MIC [24]: 25 µg/mL; MIC [25]: 0.2 µg/mL; Number of convulsion induced / Number of animals (Male mice of ddY strain): 6 / 6; MIC [26]: 0.025 µg/mL
